# “Also recorded” adds a separate entry of the source. Read-outs that look alike come from different tables or passages of the source.
# Experiments:
# SARS-CoV = experiment: microbe, parasite or virus in culture; type: cell-based; details: read-out: EC50, SARS-CoV plaque formation
# [1] = target: T1, human neutrophil elastase (HNE) (Homo sapiens, UniProt P08246); type: biochemical
# T1 sequence (P08246 30-267): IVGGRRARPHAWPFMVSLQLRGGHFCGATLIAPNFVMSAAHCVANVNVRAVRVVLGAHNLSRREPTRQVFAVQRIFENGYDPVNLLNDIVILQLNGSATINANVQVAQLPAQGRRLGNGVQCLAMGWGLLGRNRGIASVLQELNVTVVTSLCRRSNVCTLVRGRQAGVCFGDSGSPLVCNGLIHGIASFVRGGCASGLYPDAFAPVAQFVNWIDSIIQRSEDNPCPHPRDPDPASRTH
# Vero cells = details: African green monkey
# poliovirus (type 1) = type: cell-based
# [2] = Severe acute respiratory syndrome coronavirus, Vero
SMILES,EC50 (SARS-CoV; [2]),EC50 (SARS-CoV),Inhibition of proteolytic activity of HNE [1],Cytotoxicity on Vero Cells (TC50) (Vero cells),Inhibition of poliovirus plaque formation (poliovirus (type 1))
"CC1=C(C(=O)OCCc2ccccc2)C(c2ccccc2[N+](=O)[O-])C2=C(CCCC2=O)N1 (stereo not drawn) [MP576, 3-quinolinecarboxylic acid, 1,4,5,6,7,8-hexahydro-2-methyl-4-(2-nitrophenyl)-5-oxo-, 2-phenylethyl ester]",7 µM,< 10 µM,failed to inhibit; also recorded: did not inhibit,>50 µM,
"O=C(Nc1ccc(Cl)c(-c2nc3ncccc3o2)c1)c1cccc(OCc2ccccc2)c1 [HE602, 3-Benzyloxy-N-(4-chloro-3-oxazolo[4,5-b]pyridine-2-yl-phenyl)benzamide]",6 µM,< 10 µM,,>50 µM,
"OC(COc1cccc(OCC(O)CN2CCCCC2)c1)CN1CCCCC1 (stereo not drawn) [VE607, 1-[3-(2-Hydroxyl-3-piperidin-1-yl-propoxy)-phenoxy]-3-piperidin-1-ylpropan-2-ol]",,,,>50 µM,did not protect; also recorded: did not inhibit

# Reference: paper PMC7128553 (Chemistry & Biology, 2004)
